Measured values from patent US8895585B2, “Nicotinamide derivative or salt thereof” (FUJIFILM Corporation, priority 2010, dated 2014).
Like-named read-outs stand apart in the source and are kept apart here.

Target: T1, glutathione S-transferase (GST)-fused full-length human Syk protein (Homo sapiens, UniProt P43405)
T1 construct: (GST)-fused full-length human Syk protein; GST (glutathione S-transferase); purchased Carna Biosciences
Assay: Syk enzyme assay
Type: biochemical
In short: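 Baculovirus-expressed enzyme (1.2 ng) was preincubated with compound in HEPES pH 7.0/MgCl2/DTT buffer, 2 min shaking then 13 min at room temperature. Biotin-EDPDYEWPSA-NH2 (0.4 μM final) and ATP (27 μM final) were added for 40 min at room temperature. EDTA stop, streptavidin-XL/PT66-K TR-FRET at 615/665 nm gave IC50.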

[1] = Syk enzyme assay, Test Example 1, read-out: IC50 of Syk-inhibitory activity
[2] = read-out: Syk-inhibitory activity (IC50)

Structure (SMILES) | IC50 [1] [nM] | IC50 [2] [nM]
NC(=O)c1cc(F)c(NC2CCCCC2N)nc1Nc1ccc2cc(-n3cccn3)cnc2c1 (stereo not shown) [Example 002-143] | < 10 | –
NC(=O)c1cc(F)c(NC2CCCCC2N)nc1Nc1ccnc(-c2cc(F)ccc2F)c1 (stereo not shown) [Example 002-145] | < 10 | –
NC(=O)c1cc(F)c(NC2CCCCC2N)nc1Nc1ccnc(-c2cccc(Cl)c2F)c1 (stereo not shown) [Example 002-146] | < 10 | –
NC(=O)c1cc(F)c(NC2CCCCC2N)nc1Nc1ccnc(-c2cc(Cl)ccc2F)c1 (stereo not shown) [Example 002-147] | < 10 | –
COc1ncc(Nc2nc(NC3CCCCC3N)c(F)cc2C(N)=O)cc1-c1ccccc1 (stereo not shown) [Example 002-148] | 10 to 50 | –
COc1ncc(Nc2nc(NC3CCCCC3N)c(F)cc2C(N)=O)cc1-c1ccccc1F (stereo not shown) [Example 002-149] | 10 to 50 | –
COc1ncc(Nc2nc(NC3CCCCC3N)c(F)cc2C(N)=O)cc1-c1ccco1 (stereo not shown) [Example 002-150] | 10 to 50 | –
COc1ncc(Nc2nc(NC3CCCCC3N)c(F)cc2C(N)=O)cc1-c1ccoc1 (stereo not shown) [Example 002-151] | 10 to 50 | –
COc1ncc(Nc2nc(NC3CCCCC3N)c(F)cc2C(N)=O)cc1C (stereo not shown) [Example 002-152] | 10 to 50 | –
COc1ncc(Nc2nc(NC3CCCCC3N)c(F)cc2C(N)=O)cc1C1CC1 (stereo not shown) [Example 002-153] | 10 to 50 | –
COc1ncc(Nc2nc(NC3CCCCC3N)c(F)cc2C(N)=O)cc1-n1cccn1 (stereo not shown) [Example 002-154] | 10 to 50 | –
NC(=O)c1cc(F)c(NC2CCCCC2N)nc1Nc1ccc(N2CCCC2=O)nc1 (stereo not shown) [Example 002-156] | 50 to 100 | –
NC(=O)c1cc(F)c(NC2CCCCC2N)nc1Nc1ccc(N2CCCCC2=O)nc1 (stereo not shown) [Example 002-157] | 100 to 1000 | –
CC1(C)Oc2cccnc2N(c2ccc(Nc3nc(NC4CCCCC4N)c(F)cc3C(N)=O)cn2)C1=O (stereo not shown) [Example 002-159] | 100 to 1000 | –
NC(=O)c1cc(F)c(NC2CCCCC2N)nc1Nc1ccc(-n2nccn2)nc1 (stereo not shown) [Example 002-161] | 50 to 100 | –
NC(=O)c1cc(F)c(NC2CCCCC2N)nc1Nc1ccc(N2CCOCC2=O)nc1 (stereo not shown) [Example 002-162] | 100 to 1000 | –
Cc1cc(Nc2nc(NC3CCCCC3N)c(F)cc2C(N)=O)c(F)cn1 (stereo not shown) [Example 002-164] | 50 to 100 | –
NC(=O)c1cc(F)c(NC2CCCCC2N)nc1Nc1cc(N2CCOCC2)ncc1F (stereo not shown) [Example 002-166] | 100 to 1000 | –
NC(=O)c1cc(F)c(NC2CCCCC2N)nc1Nc1ccnc(-c2ccccc2)c1F (stereo not shown) [Example 002-167] | 10 to 50 | –
NC(=O)c1cc(F)c(NC2CCCCC2N)nc1Nc1cc(-c2ccccc2)ncc1F (stereo not shown) [Example 002-168] | 10 to 50 | –
COc1cc(-c2cncc(Nc3nc(NC4CCCCC4N)c(F)cc3C(N)=O)c2)cc(OC)c1OC (stereo not shown) [Example 002-171] | 50 to 100 | –
NC(=O)c1cc(F)c(NC2CCCCC2N)nc1Nc1cncc(-c2ccc(OC(F)(F)F)cc2)c1 (stereo not shown) [Example 002-174] | 50 to 100 | –
NC(=O)c1cc(F)c(NC2CCCCC2N)nc1Nc1ccnc(-c2ccc3c(c2)OCO3)c1 (stereo not shown) [Example 002-176] | < 10 | –

Structure (SMILES) | IC50 [1] [nM] | IC50 [2] [nM]
NC(=O)c1cc(F)c(NC2CCCCC2N)nc1Nc1cncc(-c2ccc3c(c2)NC(=O)CO3)c1 (stereo not shown) [Example 002-177] | < 10 | –
NC(=O)c1cc(F)c(NC2CCCCC2N)nc1Nc1ccnc(-c2ccc3c(c2)NC(=O)CO3)c1 (stereo not shown) [Example 002-178] | < 10 | –
NC(=O)c1cc(F)c(NC2CCCCC2N)nc1Nc1cncc(-c2cccc3cnccc23)c1 (stereo not shown) [Example 002-179] | 50 to 100 | –
NC(=O)c1cc(F)c(NC2CCCCC2N)nc1Nc1ccnc(-c2cccc3cnccc23)c1 (stereo not shown) [Example 002-180] | 50 to 100 | –
NC(=O)c1cc(F)c(NC2CCCCC2N)nc1Nc1cncc(-c2cccc3cccnc23)c1 (stereo not shown) [Example 002-181] | 50 to 100 | –
NC(=O)c1cc(F)c(NC2CCCCC2N)nc1Nc1ccnc(-c2cccc3cccnc23)c1 (stereo not shown) [Example 002-182] | 100 to 1000 | –
COc1cccc(-c2cc(Nc3nc(NC4CCCCC4N)c(F)cc3C(N)=O)ccn2)c1 (stereo not shown) [Example 002-183] | < 10 | –
COc1ccc(-c2cc(Nc3nc(NC4CCCCC4N)c(F)cc3C(N)=O)ccn2)cc1 (stereo not shown) [Example 002-184] | < 10 | –
NC(=O)c1cc(F)c(NC2CCCCC2N)nc1Nc1ccnc(-c2ccc3cccnc3c2)c1 (stereo not shown) [Example 002-192] | < 10 | –
NC(=O)c1cc(F)c(NC2CCCCC2N)nc1Nc1ccnc(-c2ccc3ccncc3c2)c1 (stereo not shown) [Example 002-194] | < 10 | –
NC(=O)c1cc(F)c(NC2CCCCC2N)nc1Nc1cnc2oc3ccccc3c2c1 (stereo not shown) [Example 002-195] | < 10 | –
Cn1cc(Nc2nc(NC3CCCCC3N)c(F)cc2C(N)=O)ccc1=O (stereo not shown) [Example 002-202] | 100 to 1000 | –
COc1ncc(Nc2nc(NC3CCCCC3N)c(F)cc2C(N)=O)cc1Cl (stereo not shown) [Example 002-203] | 10 to 50 | –
NC(=O)c1cc(F)c(N[C@@H]2CCCC[C@@H]2N)nc1Nc1cncnc1 [Example 004-001] | 100 to 1000 | –
NC(=O)c1cc(F)c(N[C@@H]2CCCC[C@@H]2N)nc1Nc1cccc2c1CNC2=O [Example 004-009] | < 10 | –
CNC(=O)c1cncc(Nc2nc(N[C@@H]3CCCC[C@@H]3N)c(F)cc2C(N)=O)c1 [Example 004-010] | 10 to 50 | –
CN(C)C(=O)c1cncc(Nc2nc(N[C@@H]3CCCC[C@@H]3N)c(F)cc2C(N)=O)c1 [Example 004-015] | 100 to 1000 | –
NC(=O)c1cc(F)c(N[C@@H]2CCCC[C@@H]2N)nc1Nc1cnc2nccnc2c1 [Example 004-021] | 100 to 1000 | –
CC(=O)N(C)c1cccc2cc(Nc3nc(N[C@@H]4CCCC[C@@H]4N)c(F)cc3C(N)=O)cnc12 [Example 004-034] | 50 to 100 | –
NC(=O)c1cc(F)c(N[C@@H]2CCCC[C@@H]2N)nc1Nc1ccnc2c1ccn2-c1ccccc1 [Example 004-038] | < 10 | –
NC(=O)c1cc(F)c(N[C@@H]2CCCC[C@@H]2N)nc1Nc1cncc(Oc2ccccc2)c1 [Example 004-041] | 50 to 100 | –
NC(=O)c1cc(F)c(N[C@H](Cc2ccccc2)C(N)=O)nc1Nc1ccnc2c1ccn2CCN1CCOCC1 [Example 004-045] | 10 to 50 | –
CC(=O)Nc1cccc2cc(Nc3nc(N[C@H](Cc4ccccc4)C(N)=O)c(F)cc3C(N)=O)cnc12 [Example 004-047] | 10 to 50 | –

Structure (SMILES) | IC50 [1] [nM] | IC50 [2] [nM]
NC(=O)c1cc(F)c(N[C@H](Cc2ccccc2)C(N)=O)nc1Nc1ccnc2[nH]ccc12 [Example 004-063] | < 10 | –
Cn1ccc2c(Nc3nc(N[C@@H]4CCCC[C@@H]4N)c(F)cc3C(N)=O)cc(C(F)(F)F)cc21 [Example 004-086] | < 10 | –
NC(=O)c1cc(F)c(N[C@@H]2CCCC[C@@H]2N)nc1Nc1cc(C(F)(F)F)cc2c1ccn2CCN1CCOCC1 [Example 004-087] | < 10 | –
COCCn1ccc2c(Nc3nc(N[C@@H]4CCCC[C@@H]4N)c(F)cc3C(N)=O)cc(C(F)(F)F)cc21 [Example 004-088] | < 10 | –
NC(=O)c1cc(F)c(N[C@@H]2CCCC[C@@H]2N)nc1Nc1cncc(N2CCCC2=O)c1 [Example 004-107] | 10 to 50 | –
CCOC(=O)c1c(F)cc2c(Nc3nc(N[C@@H]4CCCC[C@@H]4N)c(F)cc3C(N)=O)cccn12 [Example 004-115] | < 10 | –
COCCNc1cccc2cc(Nc3nc(N[C@@H]4CCCC[C@@H]4N)c(F)cc3C(N)=O)cnc12 [Example 004-122] | < 10 | –
CN(C)c1ccc2cc(Nc3nc(N[C@@H]4CCCC[C@@H]4N)c(F)cc3C(N)=O)cnc2c1 [Example 004-126] | 10 to 50 | –
CCOCCOCCNc1cccc2cc(Nc3nc(N[C@@H]4CCCC[C@@H]4N)c(F)cc3C(N)=O)cnc12 [Example 004-133] | 10 to 50 | –
C[C@@H]1CN(c2cncc(Nc3nc(N[C@@H]4CCCC[C@@H]4N)c(F)cc3C(N)=O)c2)C[C@H](C)O1 [Example 004-180] | 10 to 50 | –
NC(=O)c1cc(F)c(N[C@@H]2CCCC[C@@H]2N)nc1Nc1cncc(-c2ccccc2OCC2CC2)c1 [Example 004-184] | 10 to 50 | –
NC(=O)c1cc(F)c(N[C@@H]2CCCC[C@@H]2N)nc1Nc1ccn2cnnc2c1 [Example 004-212] | 10 to 50 | –
CC(=O)Nc1cccc(-c2cncc(Nc3nc(N[C@@H]4CCCC[C@@H]4N)c(F)cc3C(N)=O)c2)c1 [Example 004-223] | < 10 | –
CC(=O)Nc1ccc(-c2cncc(Nc3nc(N[C@@H]4CCCC[C@@H]4N)c(F)cc3C(N)=O)c2)cc1 [Example 004-224] | < 10 | –
COc1cc(Nc2nc(N[C@@H]3CCCC[C@@H]3N)c(F)cc2C(N)=O)cnc1N1CCOCC1 [Example 004-233, 6-(((1R,2S)-2-aminocyclohexyl)amino)-5-fluoro-2-((5-methoxy-6-morpholinopyridin-3-yl)amino)nicotinamide] | 100 to 1000 | –
NC(=O)c1cc(F)c(N[C@@H]2CCCC[C@@H]2N)nc1Nc1cnc(N2CCOCC2)c2[nH]ccc12 [Example 004-234, 6-(((1R,2S)-2-aminocyclohexyl)amino)-5-fluoro-2-((7-morpholino-1H-pyrrolo[2,3-c]pyridin-4-yl)amino)nicotinamide] | 10 to 50 | –
Cc1cccc(Nc2nc(NCCN)c(F)cc2C(N)=O)c1 [Example 6-2, 6-((2-aminoethyl)amino)-5-fluoro-2-(3-methylphenylamino)nico-tinamide] | – | ≤ 1000
NCCNc1nc(Nc2cccc(Cl)c2)c(C(N)=O)cc1F [Example 006-006, 6-((2-aminoethyl)amino)-2-(3-chlorophenylamino)-5-fluoronico-tinamide] | 100 to 1000 | –
NCCNc1nc(Nc2cc(Cl)cc(Cl)c2)c(C(N)=O)cc1F [Example 006-007, 6-((2-aminoethyl)amino)-2-((3,5-dichlorophenyl)amino)-5-fluoro-nicotinamide] | 50 to 100 | –
CCNc1nc(Nc2ccc3cn[nH]c3c2)c(C(N)=O)cc1F [Example 006-018, 6-(ethylamino)-5-fluoro-2-((1H-indazol-6-yl)amino)nicotinamide] | 50 to 100 | –
CCNc1nc(Nc2ccc3cn[nH]c3c2)c(C(N)=O)cc1F [Example 6-18, 6-(ethylamino)-5-fluoro-2-((1H-indazol-6-yl)amino)nicotinamide] | – | ≤ 1000
